Measured values published in patent US9642847B2, “Combinational compositions and methods for treatment of cancer” (ArQule, Inc., priority 2009, dated 2017).
Several values for one entry are separate records, joined by “and”; a condition that tells them apart may be missing. Identical values can stand only once. Like-named read-outs stand apart in the source and are kept apart here.

Assays:
[1] = system: 22RV1; assay: 72 hr MTS assay, combination index by CalcuSyn; format: cell-based, human; conditions: 22RV1 (Prostate), chemotherapeutic agent combined with Agent A
[2] = system: DU-145; assay: 72 hr MTS assay, combination index by CalcuSyn; format: cell-based, human; conditions: DU-145 (Prostate), chemotherapeutic agent combined with Agent A
[3] = system: Hsc-39 human gastric tumor xenograft; assay: Hsc-39 human gastric tumor xenograft model; format: in vivo
Procedure: (§2) Specifically, gastric cancer cell lines MKN-45 and Hsc-39 were tested.

[4] = system: MKN-45 human gastric tumor xenograft; assay: MKN-45 human gastric tumor xenograft model (Example 88)
Procedure: as §2

[5] = system: MIA PaCa-2 pancreatic tumor cells; assay: 72 h MTT proliferation assay, equipotent fixed-ratio combination, isobologram analysis (Calcusyn)
Procedure: (§3) Cell culture and reagents: NCI-H441, PC-3, MIA PaCa-2, HeLa, HT-29 and A549 cancer cell lines (American Type Culture Collection) were cultured in Dulbecco's modified Eagle's medium containing 10% fetal bovine serum, 100 units/mL penicillin, 100 g/mL streptomycin, and 2 mM L-glutamine.
(§4) Duplicate independent experiments were performed for each cell line/drug combination. Data were then analyzed by Calcusyn™ (Biosoft, Cambridge, UK) data analysis software.
(§5) Cell survival analysis. In some experiments, cell survival was determined by the 3-(4,5-dimethylthiazol-2-yl)-2,5-diphenyl tetrazolium bromide (MTT) assay. Briefly, cells were plated in a 96-well plate at 5-10,000 cells per well, cultured for 24 hours in complete growth medium, and then treated with various drugs and drug combinations for 72 hours. […] Data were normalized to untreated controls and analyzed with Microsoft Excel.
(§6) Median effect plots and isobolograms were performed for each experiment.

[6] = system: PC-3 cells; assay: as above
Procedure: as §3, §4, §5, §6

[7] = system: NCI-H441 non-small cell lung cancer cells; assay: 72 h MTT proliferation assay, equipotent fixed-ratio combination, isobologram analysis (Calcusyn); format: cell-based, human
Description: (§1) Erlotinib is an inhibitor of the epidermal growth factor receptor and is indicated for the treatment of patients with locally advanced or metastatic non-small cell lung cancer after failure of at least one prior chemotherapy regimen, and is indicated for the first-line treatment of patients with locally advanced, unresectable or metastatic pancreatic cancer.

[8] = system: HT29 colon cancer cells; assay: as above; format: cell-based; conditions: Homo sapiens
Description: as §1
Gefitinib is an inhibitor of the EGF receptor.

[9] = system: subcutaneous NCI-H522 NSCLC tumors; conditions: for tolerability: mouse, in vivo, po
Procedure: All regimens were orally administered once daily for 21 days. Tumor sizes were evaluated periodically during treatment at the indicated days post-inoculation.

[10] = system: NCI-H441 NSCLC human tumor xenograft; assay: NCI-H441 human lung tumor xenograft model; format: in vivo; conditions: for BW loss: on day 4
Procedure: Erlotinib was administered daily at 100 mg/kg or 50 mg/kg orally, five days a week for four weeks.
Gefitinib was administered daily at 50 mg/kg orally, five days a week for four weeks.

[11] = system: MKN-45 human gastric tumor xenograft; format: in vivo; conditions: for BW loss: on day 21
Procedure: 5-FU was administered daily at 10 mg/kg intravenously, five days a week for two weeks. TS-1 was administered daily at 10 mg/kg orally, five days a week for two weeks. Capecitabine was administered daily at 360 mg/kg orally, five days a week for two weeks. CDDP was administered weekly at 5 mg/kg intravenously for two weeks.

[12] = biological target: T1, c-Met (Homo sapiens, UniProt P08581); assay: c-Met biochemical assays
T1 sequence (P08581 25-1390): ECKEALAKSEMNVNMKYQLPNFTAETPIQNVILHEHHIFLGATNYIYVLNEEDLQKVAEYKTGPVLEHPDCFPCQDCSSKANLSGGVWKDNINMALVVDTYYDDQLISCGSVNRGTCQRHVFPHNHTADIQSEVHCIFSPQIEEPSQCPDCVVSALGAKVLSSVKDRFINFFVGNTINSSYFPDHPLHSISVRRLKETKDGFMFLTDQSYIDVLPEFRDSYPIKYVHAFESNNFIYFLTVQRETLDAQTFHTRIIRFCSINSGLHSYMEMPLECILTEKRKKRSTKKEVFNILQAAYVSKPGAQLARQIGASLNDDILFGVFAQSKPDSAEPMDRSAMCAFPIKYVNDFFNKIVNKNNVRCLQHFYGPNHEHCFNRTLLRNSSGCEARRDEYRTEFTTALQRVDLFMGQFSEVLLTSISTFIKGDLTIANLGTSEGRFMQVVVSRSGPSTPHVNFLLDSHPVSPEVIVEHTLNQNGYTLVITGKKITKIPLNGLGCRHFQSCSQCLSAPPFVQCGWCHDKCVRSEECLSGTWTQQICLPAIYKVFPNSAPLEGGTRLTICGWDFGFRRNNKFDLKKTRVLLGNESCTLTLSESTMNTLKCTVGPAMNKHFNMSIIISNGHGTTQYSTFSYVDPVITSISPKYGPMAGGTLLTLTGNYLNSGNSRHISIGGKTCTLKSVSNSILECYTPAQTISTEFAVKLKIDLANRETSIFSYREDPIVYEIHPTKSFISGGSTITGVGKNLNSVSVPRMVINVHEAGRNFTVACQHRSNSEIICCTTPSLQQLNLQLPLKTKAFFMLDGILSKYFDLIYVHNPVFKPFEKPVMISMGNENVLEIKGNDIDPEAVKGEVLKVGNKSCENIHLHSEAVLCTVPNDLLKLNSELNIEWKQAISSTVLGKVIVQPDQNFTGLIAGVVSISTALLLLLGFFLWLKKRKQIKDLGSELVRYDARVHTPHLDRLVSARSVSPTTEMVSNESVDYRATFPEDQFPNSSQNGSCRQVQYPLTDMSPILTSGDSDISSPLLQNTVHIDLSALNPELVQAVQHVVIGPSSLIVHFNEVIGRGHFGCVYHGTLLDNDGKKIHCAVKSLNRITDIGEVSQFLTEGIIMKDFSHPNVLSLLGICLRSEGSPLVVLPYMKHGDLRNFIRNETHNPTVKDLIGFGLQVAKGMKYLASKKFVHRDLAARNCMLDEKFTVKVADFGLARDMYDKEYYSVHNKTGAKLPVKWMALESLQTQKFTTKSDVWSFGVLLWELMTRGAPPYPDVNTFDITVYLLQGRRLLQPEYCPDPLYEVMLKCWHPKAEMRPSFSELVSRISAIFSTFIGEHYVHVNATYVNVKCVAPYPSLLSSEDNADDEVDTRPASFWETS

[13] = biological target: T1, c-Met; assay: c-Met cell-based assays; conditions: a number of cell-based assays
[14] = system: AsPC-1; assay: 72 hr MTS cytotoxicity assay, combination with gemcitabine; format: cell-based, human; conditions: AsPC-1 (Pancreatic), chemotherapeutic agent combined with Agent A
Procedure: (§7) MIA PaCa-2 (also referred to as PACA2), PANC-1, CFPAC-1, and Hs766T human pancreatic cell lines were maintained in DMEM supplemented with 10% fetal bovine serum (FBS), penicillin, streptomycin, and fungizone. AsPC-1 cells were maintained in RPMI supplemented with 10% FBS, penicillin, streptomycin, and fungizone. HPAF-II cells were maintained in MEM supplemented with 10% FBS, penicillin, streptomycin, and fungizone. […] MTS reagent (Promega, Madison, Wis.) was added to each well and plates were incubated for 4 hr at 37° C.

[15] = system: HPAF-II; assay: as above; format: cell-based, human; conditions: HPAF-II (Pancreatic), chemotherapeutic agent combined with Agent A
Procedure: as §7

[16] = system: PANC-1; assay: as above; format: cell-based, human; conditions: PANC-1 (Pancreatic), chemotherapeutic agent combined with Agent A
Procedure: as §7

[17] = Homo sapiens, MIA PaCa-2, read-out: IC50, predicted, MIA PaCa-2 cells, predicted value used to set the ratio
[18] = Homo sapiens, PC-3, 72 h, PC-3, 72 h, single agents and fixed-ratio combination
[19] = Homo sapiens, PC-3, read-out: IC50, predicted, PC-3 cells, predicted value used to set the ratio
[20] = Homo sapiens, NCI-H441, NCI-H441 NSCLC cells, predicted value used to set the ratio, read-out: IC50, predicted
[21] = Agent A 300 mg/kg p.o. qd × 5 × 2
[22] = Agent A 300 mg/kg p.o. qd × 5 × 2, on day 10
[23] = Erlotinib 50 mg/kg p.o. qd × 5 × 4
[24] = Erlotinib 100 mg/kg p.o. qd × 5 × 4
[25] = Gefitinib 50 mg/kg p.o. qd × 5 × 4
[26] = Capecitabine 360 mg/kg p.o. qd × 5 × 2

With CC(=O)O[C@@]12CO[C@@H]1C[C@H](O)[C@@]1(C)C(=O)[C@H](O)C3=C(C)[C@@H](OC(=O)[C@H](O)[C@@H](NC(=O)OC(C)(C)C)c4ccccc4)C[C@@](O)([C@@H](OC(=O)c4ccccc4)[C@H]21)C3(C)C [Docetaxel, docetaxel] the “Combination Conclusion” value [1] was “Synergism”, the “Combination Index Values at ED50” value [1] was 0.7 and the “Combination Conclusion” value [2] was “Synergism”. The “Combination Index Values at ED50” value [2] was 0.7, the “T/C Min” value ([3]; Docetaxel 7.5 mg/kg i.v. single, on day 17) was 0.46 (17) and the “T/C Min” value ([3]; Docetaxel 15 mg/kg i.v. single, on day 17) was 0.40 (17). For the same compound, the Mortality ([4]; Docetaxel 7.5 mg/kg i.v. single) was 0/5, the “T/C Min” value ([4]; Docetaxel 7.5 mg/kg i.v. single, on day 15) was 0.63 (15) and the Mortality ([4]; Docetaxel 15 mg/kg i.v. single) was 0/5. For the same compound, the “T/C Min” value ([4]; Docetaxel 15 mg/kg i.v. single, on day 7) was 0.68 (7), the IC50 ([5]; Homo sapiens, MIA PaCa-2, 72 h, MIA PaCa-2, 72 h, single agents and fixed-ratio combination) was 5.1 nM and the IC50 [5, 17] was about 5 nM. It also gave an IC50 [6, 18] of 6 nM, an IC50 [6, 19] of about 5 nM and an IC50 ([6]; PC-3, 72 h, single agents and fixed-ratio combination, listed as Taxotere) of 3.5 nM.
Work on O=C1NC(=O)[C@@H](c2cn3c4c(cccc24)CCC3)[C@@H]1c1ccc(O)cc1 (racemic) [Example 72, (±)-Trans-3-(5,6-dihydro-4H-pyrrolo[3,2,1-ij]quinolin-1-yl)-4-(4-hydroxyphenyl)pyrrolidine-2,5-dione] yielded a melting point of 105 to 107 °C.
In the case of O=C1NC(=O)[C@@H](c2cn3c4c(cccc24)CCC3)[C@@H]1c1c[nH]c2ccccc12 (single isomer, unassigned) [Agent A], the IC50 [7, 20] is reported as 300 nM, the IC50 ([8]; HT-29, 72 h, HT29, 72 h, single agents and fixed-ratio combination, read-out: IC50) is reported as 179 nM and the IC50 ([8]; HT-29, HT29 cells, predicted value used to set the ratio, read-out: IC50, predicted) is reported as 150 nM. For the same compound, the tolerability [9] was “well-tolerated”, the “effects on body weight gain” value ([9]; oral gavage once daily for 21 days, all cohorts) was “no adverse effects on body weight gain” and the Mortality ([10]; Agent A 300 mg/kg p.o. qd × 5 × 4) was 0/5. For the same compound, the “T/C Min” value ([10]; Agent A 300 mg/kg p.o. qd × 5 × 4, on day 17) was 0.52 (17), the Mortality [11, 21] was 0/5 and the “T/C Min” value ([11]; Agent A 300 mg/kg p.o. qd × 5 × 2, on day 4) was 0.50 (4). The BW loss [11, 21] was −1.7 (21) g, the “T/C Min” value [3, 22] was 0.63 (10) and the c-Met activity [12] was “inhibit c-Met activity”. For the same compound, the c-Met activity [13] was “inhibit c-Met activity”, the Mortality [4, 21] was 0/5 and the BW loss [4, 22] was −1.3 (10) g. For the same compound, the “T/C Min” value ([4]; Agent A 300 mg/kg p.o. qd × 5 × 2, on day 15) was 0.61 (15), the IC50 [5, 17] was 150 nM and the IC50 [6, 18] was 875 nM. It also gave an IC50 [6, 19] of 1000 nM and an IC50 ([6]; PC-3, 72 h, single agents and fixed-ratio combination) of 553 nM.
Work on O=C1NC(=O)[C@@H](c2cn3c4c(cccc24)CCC3)[C@@H]1c1cccc(O)c1 (racemic) [Example 69, (±)-Trans-3-(5,6-dihydro-4H-pyrrolo[3,2,1-ij]quinolin-1-yl)-4-(3-hydroxyphenyl)pyrrolidine-2,5-dione] yielded a melting point of 108 to 110 °C.
Work on O=C1NC(=O)C(c2cn3c4c(cccc24)CCC3)=C1c1ccc(F)cc1 [Example 67, 3-(5,6-dihydro-4H-pyrrolo[3,2,1-ij]quinolin-1-yl)-4-(4-fluorophenyl)-1H-pyrrole-2,5-dione] yielded a melting point of 234 to 235 °C.
With C#Cc1cccc(Nc2ncnc3cc(OCCOC)c(OCCOC)cc23)c1 [Erlotinib, erlotinib] the IC50 ([7]; Homo sapiens, NCI-H441, 72 h, NCI-H441, 72 h, single agents and fixed-ratio combination, read-out: IC50) was 3560 nM, the IC50 [7, 20] was about 1000 nM and the IC50 ([7]; NCI-H441, 72 h, single agents and fixed-ratio combination, read-out: IC50) was 3160 nM. For the same compound, the IC50 ([8]; HT-29, HT29, 72 h, single agents and fixed-ratio combination, read-out: IC50) was 56300 nM, the Mortality [10, 23] was 0/5 and the BW loss [10, 23] was −0.6 (4) g. The “T/C Min” value ([10]; Erlotinib 50 mg/kg p.o. qd × 5 × 4, on day 17) was 0.59 (17), the Mortality [10, 24] was 0/5 and the BW loss [10, 24] was −1.0 (4) g. For the same compound, the “T/C Min” value ([10]; Erlotinib 100 mg/kg p.o. qd × 5 × 4, on day 17) was 0.50 (17).
For COc1cc2ncnc(Nc3ccc(F)c(Cl)c3)c2cc1OCCCN1CCOCC1 [Gefitinib, gefitinib], the Mortality [10, 25] was 0/5, the BW loss [10, 25] was −0.5 (4) g and the “T/C Min” value ([10]; Gefitinib 50 mg/kg p.o. qd × 5 × 4, on day 21) was 0.60 (21).
For Nc1ccn([C@@H]2O[C@H](CO)[C@@H](O)C2(F)F)c(=O)n1 [Gemcitabine, gemcitabine], the “Combination Conclusion” value [14] was “Synergism”, the “Combination Index Values at ED50” value [14] was 0.6 and the “Combination Conclusion” value [15] was “Synergism”. The “Combination Index Values at ED50” value [15] was 0.2, the “Combination Conclusion” value [16] was “Synergism” and the “Combination Index Values at ED50” value [16] was 0.7.
With COc1cccc([C@@H]2C(=O)NC(=O)[C@H]2c2cn3c4c(cccc24)CCC3)c1 (racemic) [Example 68, (±)-Trans-3-(5,6-dihydro-4H-pyrrolo[3,2,1-ij]quinolin-1-yl)-4-(3-methoxyphenyl)pyrrolidine-2,5-dione] the melting point was 87 to 91 °C.
In the case of O=c1[nH]cc(F)c(=O)[nH]1 [Example 5-FU, fluorouracil], the Mortality ([11]; 5-FU 10 mg/kg i.v. qd × 5 × 2) is reported as 0/5, the “T/C Min” value ([11]; 5-FU 10 mg/kg i.v. qd × 5 × 2, on day 14) is reported as 0.63 (14) and the BW loss ([11]; 5-FU 10 mg/kg i.v. qd × 5 × 2) is reported as −3.4 (21) g.
With N.N.[Cl][Pt][Cl] [Cisplatin, cisplatin] the Mortality ([11]; Cisplatin 5 mg/kg i.v. Weekly × 2) was 0/5, the “T/C Min” value ([11]; Cisplatin 5 mg/kg i.v. Weekly × 2, on day 10) was 0.55 (10) and the IC50 ([5]; MIA PaCa-2, 72 h, single agents and fixed-ratio combination) was 3370 nM and 3790 nM.
In the case of CCCCCOC(=O)Nc1nc(=O)n([C@@H]2O[C@H](C)[C@@H](O)[C@H]2O)cc1F [Capecitabine, capecitabine], the Mortality [11, 26] is reported as 0/5, the “T/C Min” value ([11]; Capecitabine 360 mg/kg p.o. qd × 5 × 2, on day 14) is reported as 0.42 (14) and the BW loss [11, 26] is reported as −1.4 (21) g.
With CNC(=O)c1cc(Oc2ccc(NC(=O)Nc3ccc(Cl)c(C(F)(F)F)c3)cc2)ccn1 [sorafenib] the tolerability [9] was “well-tolerated”.
In the case of O=C1NC(=O)C(c2cn3c4c(cccc24)CCC3)=C1c1ccc(OCc2ccccc2)cc1 [Example 66, 3-[4-(benzyloxy)phenyl]-4-(5,6-dihydro-4H-pyrrolo[3,2,1-ij]quinolin-1-yl)-1H-pyrrole-2,5-dione], the melting point is reported as 262 to 265 °C.
In the case of O=C1NC(=O)[C@@H](c2cn3c4c(cccc24)CCC3)[C@@H]1c1ccc(F)cc1 (racemic) [Example 70, (±)-Trans-3-(5,6-dihydro-4H-pyrrolo[3,2,1-ij]quinolin-1-yl)-4-(4-fluorophenyl)pyrrolidine-2,5-dione], the melting point is reported as 208 to 210 °C.
